Source: US8389573B2, “Glycyrrhetinic acid derivatives” (Wellington Laboratories Inc., priority 2006, dated 2013)

Legend:
[1] = test system: PPARγ; experiment: PPARγ-GAL4/pGAL4 transfection and luciferase assay in SW480 cells; type: cell-based
Description: The Gal4 reporter containing 5× Gal4 response elements (pGal4) was kindly provided by Dr. Marty Mayo (University of North Carolina, Chapel Hill, N.C.). Gal4 DBD-PPARγ construct (gPPARγ) was a gift of Dr. Jennifer L. Oberfield (GlaxoSmithKline Research and Development, Research Triangle Park, N.C.). PPRE3-luc construct contains three tandem PPREs with a minimal TATA sequence in pGL2.
Colon Cancer cell lines SW480 and HT29 (1×10^5 cells/well) were plated in 12-well plates in DMEM/Ham's F-12 media supplemented with 2.5% charcoal-stripped FBS. After 16 h, various amounts of DNA [i.e., Gal4Luc (0.4 μg), β-Gal (0.04 μg), Gal4PPAR and PPRE3-Luc (0.04 μg)] were transfected using LipofectAMINE™ reagent (Invitrogen) following the manufacturer's protocol. Five hours after transfection, the transfection mix was replaced with complete media containing either vehicle (DMSO) or the indicated ligand for 20 to 22 h. Cells were then lysed with 100 μl of 1× reporter lysis buffer, and 30 μl of cell extract was used for luciferase and […] assays. A LumiCount™ luminometer (PerkinElmer Life and Analytical Sciences) was used to quantitate luciferase and β-Gal activities, and the luciferase activities were normalized to β-Gal activity. Results are expressed as means±S.E. for at least three replicate determinations for each treatment group

[2] = test system: SW480 cells; experiment: Western blot analysis in SW480 cells; type: cell-based, human
Description: SW-480 and HT-29 (3×10^5) cells were seeded in six-well plates in DMEM/Ham's F-12 media containing 2.5% charcoal-stripped FBS for 24 h and then treated with either the vehicle (DMSO) or the indicated compounds. Whole-cell lysates were obtained using high-salt buffer [50 mM HEPES, 500 mM NaCl, 1.5 mM MgCl2, 1 mM EGTA, 10% glycerol, and 1% Triton X-100, pH 7.5, and 5 μl/ml Protease Inhibitor Cocktail (Sigma-Aldrich)]. Protein samples were incubated at 100° C. for 2 min, separated on 10% SDS-PAGE at 120 V for 3 to 4 h in 1× running buffer (25 mM Tris-base, 192 mM glycine, and 0.1% SDS, pH 8.3), and transferred to polyvinylidene difluoride membrane (PVDF; Bio-Rad, Hercules, Calif.) at […] for 16 h at 4° C. in 1× transfer buffer (48 mM Tris-HCl, 39 mM glycine, and 0.025% SDS). The PVDF membrane was blocked in 5% TBST-Blotto (10 mM Tris-HCl, 150 mM NaCl, pH 8.0, 0.05% Triton X-100, and 5% nonfat dry milk) with gentle shaking for 30 min and was incubated in fresh 5% TBST-Blotto with 1:1000 (for caveolin-1, p27, p21, cyclin D1, Grp78), 1:500 (for KLF4, NAG-1), 1:250 (for PARP), and 1:5000 (for β-actin) primary antibody overnight with gentle shaking at 4° C. After washing with TBST for 10 min, the PVDF membrane was incubated with secondary antibody (1:5000) in 5% TBST-Blotto for 90 min. The membrane was washed with TBST for 10 min, incubated with 10 ml of chemiluminescence substrate (PerkinElmer) for 1.0 min, and exposed to Kodak X-OMAT AR autoradiography film (Eastman Kodak, Rochester, N.Y.).

[3] = test system: p21 promoter; experiment: p21 promoter construct luciferase assay in LNCaP cells; type: cell-based; conditions: 1-5 μM
[4] = test system: AR mRNA; experiment: Real-time PCR of AR mRNA in LNCaP cells; type: cell-based, human
Description: Real-Time PCR: Total RNA was isolated using the RNeasy Protect Mini kit (QIAGEN, Valencia, Calif.) according to the manufacturer's protocol. RNA was eluted with 30 μl of RNasefree water and stored at −80° C. RNA was reverse transcribed using Superscript II reverse transcriptase (Invitrogen) according to the manufacturer's protocol. cDNA was prepared from the LNCaP cell line using a combination of oligodeoxythymidylic acid and dNTP mix (Applied Biosystems, Foster City, Calif.) and Superscript II (Invitrogen). Each PCR was carried out in triplicate in a 25-μl volume using SYBR Green Master mix (Applied Biosystems) for 15 min at 95° C. for initial denaturing, followed by 40 cycles of 95° C. for 30 s and 60° C. for 1 min in the ABI Prism 7700 sequence detection system (Applied Biosystems). The ABI Dissociation Curves software was used after a brief thermal protocol (95° C. 15 s and 60° C. 20 s, followed by a slow ramp to 95° C.) to control for multiple species in each PCR amplification. The comparative CT method was used for relative quantitation of samples. Values for each gene were normalized to expression levels of TATA-binding protein. Primers were purchased from Integrated DNA Technologies (Coralville, Iowa). The sequences of the primers used for reverse transcription-PCR were as follows: AR forward, 5′-GTA CCC TGG CGG CAT GGT-3′ [SEQ ID NO: 1] and AR reverse, 5′-CCCATTTCGCTTTTGACACA-3′ [SEQ ID NO: 2]; PSA forward, 5′-GCATTGAACCAGAGGAGTTCTTG-3′ [SEQ ID NO: 3] and PSA reverse, 5′-TTG CGC ACA CAC GTC ATT G-3′ [SEQ ID NO: 4]; and TATA-binding protein forward, 5′-TGCACAGGAGCCAAGAGTGAA-3′ [SEQ ID NO: 5] and reverse, 5′-CACATCACAGCTCCCCACCA-3′ [SEQ ID NO: 6].

COC(=O)[C@@]1(C)CC[C@]2(C)CC[C@]3(C)C(=CC(=O)[C@@H]4[C@@]5(C)C=C(C#N)C(=O)C(C)(C)[C@@H]5CC[C@]43C)[C@@H]2C1 [β-CDODA-Me, Methyl 2-cyano-3,11-dioxo-18β-oleana-1,12-dien-30-oate]
induced luciferase activity after cotreatment with PPARγ antagonist T007 ([1]; 1.0, 2.5, 5.0 β-CDODA-Me or 10, 20, 30 μM β-CDODA, 10 μM T007): inhibited
maximal induction of luciferase activity (PPARγ activation) ([1]; 1-5 μM): 18 Fold
KLF4 induction ([2]; SW480, 0.5-7.5 μM): induction
NAG-1 induction ([2]; SW480, 24 hr): not induced
induction of GRP78 protein (ER stress) ([2]; SW480, 24 hr): not observed
KLF-4 induction after cotreatment with T007 ([2]; SW480, 24 hr, 10 μM T007): blocks this induction response
down regulation of cyclin D1, p27 or PARP cleavage after cotreatment with T007 ([2]; SW480, 24 hr, 10 μM T007): does not affect
PARP cleavage (indicator of apoptosis) ([2]; SW480, 24 hr, 0.5-5.0 μM): only observed at higher concentrations
p27 protein ([2]; SW480, 24 hr, 0.5-5.0 μM): dose-dependent increase
Cyclin D1 and p21 protein expression ([2]; SW480, 24 hr, 0.5 or 1 μM): unchanged
Cyclin D1 and p21 protein expression ([2]; SW480, 24 hr, 2.5 and 5.0 μM): decreased
caveolin-1 protein expression ([2]; SW480, treatment for 3 days): did not affect expression of caveolin-1
luciferase activity of p21 promoter constructs [3]: induces luciferase activity
AR mRNA effects in the presence of cycloheximide (10 μg/ml) [4]: did not modulate
AR mRNA levels after cotreatment with T007 [4]: did not affect mRNA levels
AR mRNA levels ([4]; 12 and 18 hr): decreases AR mRNA levels
